Activity calls are given as the source filed them. The rule behind the calls is not given here.
Tests used:
Escherichia coli [1] = test: Antibacterial activity against Escherichia coli ATCC 25922 assessed as fractional inhibitory concentration index in presence of doxycycline incubated for 18 hrs by broth microdilution assay; type: functional
Escherichia coli [2] = test: Antibacterial activity against Escherichia coli ATCC 25922 assessed as potentiation of doxycycline-induced antibacterial activity by measuring doxycycline MIC at 10 uM incubated for 18 hrs in presence of doxycycline by broth microdilution assay (reference value: 0.5 ug/ml); type: functional
Pseudomonas aeruginosa [3] = test: Potentiation of chloramphenicol-induced antibacterial activity against Pseudomonas aeruginosa 264-101354 incubated for 18 hrs in presence of chloramphenicol by broth microdilution assay; type: functional, organism-based; settings: dose 1-32 µg/ml
Pseudomonas aeruginosa [4] = test: Potentiation of doxycycline-induced antibacterial activity against Pseudomonas aeruginosa 264-101354 incubated for 18 hrs in presence of doxycycline by broth microdilution assay; type: functional, organism-based; settings: dose 1-32 µg/ml
Enterobacter cloacae [5] = test: Antibacterial activity against Enterobacter cloacae ATCC 117029 assessed as fractional inhibitory concentration index in presence of chloramphenicol incubated for 18 hrs by broth microdilution assay; type: functional
Pseudomonas aeruginosa [6] = test: Antibacterial activity against Pseudomonas aeruginosa 100036 assessed as fractional inhibitory concentration incubated for 18 hrs in presence of minocycline by broth microdilution assay; type: functional
Pseudomonas aeruginosa [7] = test: Potentiation of chloramphenicol-induced antibacterial activity against Pseudomonas aeruginosa 114228 assessed as fold change in chloramphenicol MIC at 9.8 uM incubated for 18 hrs in presence of chloramphenicol by broth microdilution assay relative to control; type: functional
Pseudomonas aeruginosa [8] = test: Antibacterial activity against Pseudomonas aeruginosa 114228 assessed as fractional inhibitory concentration index in presence of doxycycline incubated for 18 hrs by broth microdilution assay; type: functional
Pseudomonas aeruginosa [9] = test: Antibacterial activity against Pseudomonas aeruginosa 101885 assessed as fractional inhibitory concentration index in presence of doxycycline incubated for 18 hrs by broth microdilution assay; type: functional
Pseudomonas aeruginosa [10] = test: Antibacterial activity against Pseudomonas aeruginosa 101885 assessed as fractional inhibitory concentration index in presence of chloramphenicol incubated for 18 hrs by broth microdilution assay; type: functional
Pseudomonas aeruginosa [11] = test: Potentiation of doxycycycline-induced bactericidal activity against Pseudomonas aeruginosa PAO1 assessed as reduction in bacterial colonies at 4.9 to 9.8 microM incubated for upto 24 hrs in LB medium in presence of doxycycline followed by plating on agar plate and measured after 20 hrs by time-kill assay; type: functional, organism-based; settings: dose 4.9-9.8 µM, time hrs <=44
Enterobacter cloacae [12] = test: Antibacterial activity against Enterobacter cloacae ATCC 117029 assessed as potentiation of chloramphenicol-induced antibacterial activity by measuring chloramphenicol MIC at 10 uM incubated for 18 hrs in presence of chloramphenicol by broth microdilution assay (reference value: 8 ug/ml); type: functional
Escherichia coli [13] = test: Antibacterial activity against Escherichia coli ATCC 25922 assessed as potentiation of chloramphenicol-induced antibacterial activity by measuring chloramphenicol MIC at 10 uM incubated for 18 hrs in presence of chloramphenicol by broth microdilution assay (reference value: 2 ug/ml); type: functional
Pseudomonas aeruginosa [14] = test: Potentiation of chloramphenicol-induced bactericidal activity against Pseudomonas aeruginosa PAO1 assessed as reduction in bacterial colonies incubated for >= 24 hrs in LB medium in presence of chloramphenicol followed by plating on agar plate and measured after 20 hrs by time-kill assay; type: functional, organism-based; settings: dose 4.9-9.8 µM, time hrs >=44
Pseudomonas aeruginosa [15] = test: Antibacterial activity against Pseudomonas aeruginosa 101885 assessed as fractional inhibitory concentration incubated for 18 hrs in presence of tigecycline by broth microdilution assay; type: functional
HEK293 = test: Cytotoxicity against human HEK293 cells assessed as cell viability at 50 uM incubated for 48 hrs in presence of chloramphenicol by prestoblue assay; type: cell-based; settings: hek293, 48 h
Pseudomonas aeruginosa [16] = test: Antibacterial activity against Pseudomonas aeruginosa 100036 assessed as fractional inhibitory concentration incubated for 18 hrs in presence of rifampicin by broth microdilution assay; type: functional
Pseudomonas aeruginosa [17] = test: Antibacterial activity against Pseudomonas aeruginosa 91433 assessed as fractional inhibitory concentration incubated for 18 hrs in presence of rifampicin by broth microdilution assay; type: functional
Acinetobacter baumannii = test: Antibacterial activity against Acinetobacter baumannii ATCC 17978 assessed as potentiation of doxycycline-induced antibacterial activity by measuring doxycycline MIC at 10 uM incubated for 18 hrs in presence of doxycycline by broth microdilution assay (reference value: 0.25 ug/ml); type: functional
Enterobacter cloacae [18] = test: Antibacterial activity against Enterobacter cloacae ATCC 117029 assessed as reduction in bacterial growth incubated for 18 hrs by broth microdilution assay; type: functional
Pseudomonas aeruginosa [19] = test: Antibacterial activity against Pseudomonas aeruginosa 259-96918 assessed as fractional inhibitory concentration incubated for 18 hrs in presence of minocycline by broth microdilution assay; type: functional
Pseudomonas aeruginosa [20] = test: Potentiation of doxycycline-induced antibacterial activity against Pseudomonas aeruginosa 260-97103 incubated for 18 hrs in presence of doxycycline by broth microdilution assay; type: functional, organism-based; settings: dose 1-32 µg/ml
Klebsiella pneumoniae [21] = test: Antibacterial activity against Klebsiella pneumoniae ATCC 16381 assessed as potentiation of doxycycline-induced antibacterial activity by measuring doxycycline MIC at 10 uM incubated for 18 hrs in presence of doxycycline by broth microdilution assay (reference value: 128 ug/ml); type: functional
Klebsiella pneumoniae [22] = test: Antibacterial activity against Klebsiella pneumoniae ATCC 16381 assessed as fractional inhibitory concentration index in presence of chloramphenicol incubated for 18 hrs by broth microdilution assay; type: functional
Pseudomonas aeruginosa [23] = test: Antibacterial activity against Pseudomonas aeruginosa 101243 assessed as fractional inhibitory concentration index incubated for 18 hrs in presence of minocycline by broth microdilution assay; type: functional
Pseudomonas aeruginosa [24] = test: Antibacterial activity against Pseudomonas aeruginosa 260-97103 infected in Galleria mellonella larvae assessed as survival of larvae at 100 mg/kg treated at 3 hrs post-infection in presence of chloramphenicol and measured after 18 hrs relative to control; type: functional
Pseudomonas aeruginosa [25] = test: Antibacterial activity against Pseudomonas aeruginosa 262-101856 assessed as potentiation of doxycycline-induced antibacterial activity by measuring doxycycline MIC at 7.6 uM incubated for 18 hrs in presence of doxycycline by broth microdilution assay (reference value: 1024 ug/ml); type: functional
Pseudomonas aeruginosa [26] = test: Antibacterial activity against Pseudomonas aeruginosa 100036 assessed as reduction in bacterial growth by measuring chloramphenicol MIC at 8 ug/ml incubated for 18 hrs in presence of chloramphenicol by broth microdilution assay (reference value: 1024 ug/ml); type: functional; settings: dose 8 µg/ml
Pseudomonas aeruginosa [27] = test: Antibacterial activity against Pseudomonas aeruginosa 262-101856 assessed as fractional inhibitory concentration incubated for 18 hrs in presence of chloramphenicol by broth microdilution assay; type: functional
Pseudomonas aeruginosa [28] = test: Antibacterial activity against Pseudomonas aeruginosa 101243 assessed as fractional inhibitory concentration incubated for 18 hrs in presence of doxycycline by broth microdilution assay; type: functional
Pseudomonas aeruginosa [29] = test: Antibacterial activity against Pseudomonas aeruginosa 264-101354 assessed as fractional inhibitory concentration incubated for 18 hrs in presence of chloramphenicol by broth microdilution assay; type: functional
Pseudomonas aeruginosa [30] = test: Antibacterial activity against Pseudomonas aeruginosa 101243 assessed as fractional inhibitory concentration incubated for 18 hrs in presence of chloramphenicol by broth microdilution assay; type: functional
Pseudomonas aeruginosa [31] = test: Antibacterial activity against wild type Pseudomonas aeruginosa PAO1 assessed as reduction in bacterial growth by measuring chloramphenicol MIC at 8 ug/ml incubated for 18 hrs in presence of chloramphenicol by broth microdilution assay (reference value: 32 ug/ml); type: functional; settings: dose 8 µg/ml

Row | SMILES | fractional inhibitory concentration index (FICI) (Escherichia coli [1]) | MIC (Escherichia coli [2]) [µg/mL] | Activity (Pseudomonas aeruginosa [3]) | Activity (Pseudomonas aeruginosa [4]) | fractional inhibitory concentration index (FICI) (Enterobacter cloacae [5]) | fractional inhibitory concentration index (FICI) (Pseudomonas aeruginosa [8]) | fractional inhibitory concentration index (FICI) (Pseudomonas aeruginosa [9]) | fractional inhibitory concentration index (FICI) (Pseudomonas aeruginosa [10]) | MIC (Enterobacter cloacae [12]) [µg/mL] | MIC (Escherichia coli [13]) [µg/mL] | MIC (Acinetobacter baumannii) [µg/mL] | MIC (Enterobacter cloacae [18]) [µg/mL] | Activity (Pseudomonas aeruginosa [20]) | MIC (Klebsiella pneumoniae [21]) [µg/mL] | fractional inhibitory concentration index (FICI) (Klebsiella pneumoniae [22]) | FIC (Pseudomonas aeruginosa [27]) | FIC (Pseudomonas aeruginosa [28]) | FIC (Pseudomonas aeruginosa [29]) | FIC (Pseudomonas aeruginosa [30]) | further results
1 | CO[C@H]1/C=C/O[C@@]2(C)Oc3c(C)c(O)c4c(O)c(c(/C=N/N5CCN(Cc6cn(CCCCCCO[C@@H]7[C@@H](O[C@H]8O[C@H](CO)[C@@H](O)[C@H](N)[C@H]8O)[C@H](N)C[C@H](N)[C@H]7O[C@H]7O[C@H](CN)[C@@H](O)C[C@H]7N)nn6)CC5)c(O)c4c3C2=O)NC(=O)/C(C)=C\C=C\[C@H](C)[C@H](O)[C@@H](C)[C@@H](O)[C@@H](C)[C@H](OC(C)=O)[C@@H]1C.Cl.Cl.Cl.Cl.Cl | 0.5 | 0.125 | Dose-dependent effect | Dose-dependent effect | 0.375 | <0.156 | 0.078 | 0.078 | 1 | 1 | 0.25 | 16 | Dose-dependent effect | 64 | <0.375 |  |  |  |  | FIC (Pseudomonas aeruginosa [6]): 0.063; fold change (FC) (Pseudomonas aeruginosa [7]): 4; Activity (Pseudomonas aeruginosa [11]): Active; Activity (Pseudomonas aeruginosa [14]): Dose-dependent effect; FIC (Pseudomonas aeruginosa [15]): 0.063; Activity (HEK293): Non-Toxic; FIC (Pseudomonas aeruginosa [16]): 0.063; FIC (Pseudomonas aeruginosa [17]): <0.125; FIC (Pseudomonas aeruginosa [19]): <0.125; fractional inhibitory concentration index (FICI) (Pseudomonas aeruginosa [23]): <0.31; survival at 100 mg/kg (Pseudomonas aeruginosa [24]): 72%
2 | CO[C@H]1/C=C/O[C@@]2(C)Oc3c(C)c(O)c4c(O)c(c(/C=N/N5CCN(Cc6cn(CCCCCCCCCCCCO[C@@H]7[C@@H](O[C@H]8O[C@H](CO)[C@@H](O)[C@H](N)[C@H]8O)[C@H](N)C[C@H](N)[C@H]7O[C@H]7O[C@H](CN)[C@@H](O)C[C@H]7N)nn6)CC5)c(O)c4c3C2=O)NC(=O)/C(C)=C\C=C\[C@H](C)[C@H](O)[C@@H](C)[C@@H](O)[C@@H](C)[C@H](OC(C)=O)[C@@H]1C.O=C(O)C(F)(F)F.O=C(O)C(F)(F)F.O=C(O)C(F)(F)F.O=C(O)C(F)(F)F.O=C(O)C(F)(F)F | 0.625 | 0.25 | Dose-dependent effect | Dose-dependent effect | 0.375 | <0.187 | 0.094 | 0.07 | 1 | 1 | 0.25 | 16 | Dose-dependent effect | 64 | <0.281 |  |  |  |  | MIC (Pseudomonas aeruginosa [25]): 8 µg/mL
3 | NC[C@H]1O[C@H](O[C@H]2[C@H](O)[C@@H](O[C@H]3O[C@H](CO)[C@@H](O)[C@H](N)[C@H]3O)[C@H](N)C[C@@H]2N)[C@H](N)C[C@@H]1O [TOBRAMYCIN] |  |  |  |  |  |  |  |  |  |  |  |  |  |  |  | <=0.5 | 0.5 | 0.5 | 0.5 | MIC (Pseudomonas aeruginosa [26]): 1020 µg/mL
4 | CO[C@H]1/C=C/O[C@@]2(C)Oc3c(C)c(O)c4c(O)c(c(/C=N/N5CCN(C)CC5)c(O)c4c3C2=O)NC(=O)/C(C)=C\C=C\[C@H](C)[C@H](O)[C@@H](C)[C@@H](O)[C@@H](C)[C@H](OC(C)=O)[C@@H]1C [RIFAMPIN] |  |  |  |  |  |  |  |  |  |  |  |  |  |  |  | 0.5 | 0.5 | 0.5 | 0.5 | MIC (Pseudomonas aeruginosa [31]): 32 µg/mL

Reference: ChEMBL document CHEMBL4715829, “Heterodimeric Rifampicin-Tobramycin conjugates break intrinsic resistance of Pseudomonas aeruginosa to doxycycline and chloramphenicol in vitro and in a Galleria mellonella in vivo model” (Eur J Med Chem, 2019)
